Measurements published in US9012178B2, “Dipeptides to enhance yield and viability from cell cultures” (Amgen Inc., priority 2010, dated 2015).
In brackets after ≈: the same amount, converted by molar mass. Where a SMILES comes first, the peptide text is derived from it.

Columns and labels:
[1] = tested on: CHO cells; assay: Recombinant protein expression from CHO cells in chemically defined medium (summary statements); assay type: cell-based, Chinese hamster; conditions: two different CHO cell lines expressing two different recombinant antibodies
[2] = tested on: CHO cell line C; assay: Fed-batch shake flask production culture in serum-free defined medium: titer, viability, growth, metabolic profiles; assay type: cell-based, Chinese hamster; conditions: for day 11 titer: cell line C, culture period 11 days (Example 4, FIG. 5)
Method: (§1) Materials and Methods: Dipeptides were purchased from Bachem (Torrance, Calif.). Each dipeptide was dissolved in water for preparation of concentrated stock solution (100 mg/mL), followed by sterile filtration using Spin-X® filter unit (Corning Inc., Corning, N.Y.).
(§2) On Day 0, prior to inoculation of production cell lines, appropriate volumes of concentrated dipeptide stock solution were added to serum-free defined production medium to bring the final dipeptide concentration at 0.5-2.0 g/L. For controls, the same volume of water was added. Cells were inoculated at 5×10^5 cells/mL with the final culture volume of 50 mL in 250 mL flasks. The shaker flasks cultures were grown in the incubator at 36° C., with 5% CO2 and agitation rate of 160 rpm.
(§3) Cultures were fed with bolus defined feed media on Days 3, 6, and 8 with the feed volume of 5-6% on Day 3, 9% on Day 6 and 9% on Day 8. Cultures were stopped and harvested on Day 11. However, if the culture viability on Day 11 was >70%, culture duration was extended beyond day 11 by introducing 4th feed on Day 11 and 5th feed on day 13 if necessary. Feed volume on Day 11 ranged from 5% to 8%, depending on the culture performance. Day 13 feed ranged from 2.5% to 3.0%. Glucose was fed as needed with typical target concentration of 7-8 g/L.
(§4) On selective days during the production run, small volumes of cultures were taken out to assess viable cell density and % viability using the CEDEX cell counter (Roche Innovatis AG). Titer was also determined on collected samples, using the high-throughput HPLC analytical method.
Materials and Methods: CHO cell line C was cultured as in Example 2. The dipeptides tested were Tyr-Lys, Thr-Phe, His-Gly, Tyr-Ala, Gly-His, Tyr-His, Tyr-Val, and a combination of Tyr-His and Thr-Phe. The culture period was 11 days, at which point titer and viability were assessed.
Materials and Methods: CHO cell line C was used for this experiment, and cultured as in Example 2. Titer, viability, viable cell density, specific productivity, and cell diameter were determined each day from day 6 to 13 or 14 of cell culture. Tyr-His dipeptide was tested at 0.5 g/L and 1 g/L, and compared to the addition of no dipeptide.

[3] = Solubility of tyrosine-containing dipeptides
[4] = tested on: CHO cell line A; assay: Fed-batch shake flask production culture in serum-free defined medium: titer and viability; assay type: cell-based, Chinese hamster; conditions: culture period 13 to 14 days
Method: as §1, §2, §3, §4
Materials and Methods: CHO cell line A was cultured as in Example 2. The effect of dipeptide Ala-His (added at 1 g/L) was compared to no added dipeptide (control) and dipeptide His-Gly. The culture period was 13 to 14 days, at which point titer and viability were assessed.

[5] = tested on: CHO cell line D; assay: 6-day batch culture in serum-free defined production medium: titer and viability; assay type: cell-based, Chinese hamster; conditions: 1 to 4 g/L, 6 days batch culture; for titer: over the negative control
Method: Materials and Methods: CHO cell line D, which produces a fully human recombinant antibody, was used for this experiment. Cells were inoculated at 2×10^6 cells/mL with a final culture volume of 2.0 mL into serum-free defined production medium. Experimental samples contained the dipeptides His-Glu, Glu-His, His-Ser, and His-Gln from 1 to 4 g/L. Control wells were set up containing either no added dipeptide as a negative control, or containing peptone at 10 g/L as a positive control. The cultures were incubated as a batch culture for 6 days, at which point the cells were harvested and titer and viability determined.

[6] = reference #1; cited from earlier work
[7] = supplement by itself in serum-free, peptone-free production medium

| Compound | day 11 titer [2] | viability [5] | titer [5] | further results |
| --- | --- | --- | --- | --- |
| Gly-His | adversely affected titer |  |  | productivity and culture performance [1]: negative effect |
| CSCC[C@H](N)C(=O)N[C@@H](Cc1ccc(O)cc1)C(=O)O [Met-Tyr] (H-Met-Tyr-OH; N-terminus and C-terminus assumed) |  |  |  | Solubility tested [3]: Not soluble |
| Thr-Phe | little to no effect |  |  | recombinant protein production [2, 7]: little to no effect; viability [2, 7]: little to no effect |
| Tyr-Ala | significantly improved titer |  |  |  |
| Ala-His |  |  |  | viability ([4]; Ala-His added at 1 g/L): maintain increased viability; titer ([4]; Ala-His added at 1 g/L, vs control): also improved titer, but not as much as His-Gly |
| Tyr-Val | significantly improved titer |  |  |  |
| His-Ser |  | significantly improved | not significantly increased |  |
| N[C@@H](Cc1ccc(O)cc1)C(=O)N[C@@H](Cc1c[nH]cn1)C(=O)O [Tyr-His] (H-Tyr-His-OH; N-terminus and C-terminus assumed) |  |  |  | Solubility (g/L)- ref. #1 [6]: 100 g/L (≈ 314 mM); Solubility tested [3]: readily soluble |
| His-Gly | moderately improved titer |  |  | viability ([4]; Ala-His added at 1 g/L): better at maintaining viability; titer improvement as compared to control [4]: more than 10%; productivity and culture performance [1]: improve productivity and culture performance |
| His-Glu |  | significantly improved | not significantly increased |  |
| Glu-His |  | significantly improved | not significantly increased |  |
| His-Gln |  | significantly improved | not significantly increased |  |
| NCCCC[C@H](NC(=O)[C@@H](N)Cc1ccc(O)cc1)C(=O)O [Tyr-Lys] (H-Tyr-Lys-OH; N-terminus and C-terminus assumed) |  |  |  | Solubility (g/L)- ref. #1 [6]: 81 g/L (≈ 262 mM); Solubility tested [3]: readily soluble |
